{"source": "ChEMBL document CHEMBL6078680", "about": "“Improving the Stability and Anti-Infective Activity of Sea Turtle AMPs Using Multiple Structural Modification Strategies” (J Med Chem, 2024)", "key": {"[1]": {"assay": "Hemolytic activity at human Erythrocyte assessed as hemolysis at 100 microg/ml", "format": "toxicity, cell-based", "conditions": "erythrocytes, at 100 µg/mL, read-out: Activity"}, "[2]": {"test_system": "Peritoneal macrophage", "assay": "Antiinflammatory activity in mouse Peritoneal macrophage cells assessed as inhibition of LPS-induced TNF-alpha production at 20 microg/ml incubated for 6 hrs by ELISA analysis", "format": "functional, cell-based", "conditions": "dose 20.0 µg/ml"}, "[3]": {"test_system": "Peritoneal macrophage", "assay": "Antiinflammatory activity in mouse Peritoneal macrophage cells assessed as inhibition of LPS-induced IL-6 production at 20 microg/ml incubated for 6 hrs by ELISA analysis", "format": "functional, cell-based", "conditions": "dose 20.0 µg/ml"}, "[4]": {"test_system": "Peritoneal macrophage", "assay": "Antiinflammatory activity in mouse Peritoneal macrophage cells assessed as inhibition of LPS-induced IL-6 production my measuring fold change at 20 microg/ml incubated for 6 hrs by ELISA analysis", "format": "functional", "conditions": "dose 20 µg/ml"}, "[5]": {"test_system": "Staphylococcus aureus", "assay": "Antimicrobial activity against Staphylococcus aureus CMCC 26003 at 5 times MIC measured at 180 mins", "format": "functional, organism-based"}}, "note": "The source made the active and inactive calls. The calls are words filed in the database; no cut-off is given here. Starred links: 1 amine or outer side, 2 acyl side, 3 side chain; linkers in the order of their positions; H or OH if unused. Positions of bridges follow the written chain, without caps; N, C: chain ends. Non-standard residues stand in square brackets, D forms with d. Residues, ends and D or L forms follow the SMILES beside them. X1 = C[C@@](CCCCC=[*:3])(N[*:1])C(=O)[*:2]"}
{"smiles": "CC[C@H](C)[C@H](NC(=O)[C@H](CCCNC(=N)N)NC(=O)[C@H](CO)NC(=O)[C@H](Cc1c[nH]cn1)NC(=O)[C@H](CCCNC(=N)N)NC(=O)[C@H](CC(C)C)NC(=O)[C@@H](NC(=O)[C@H](CCCNC(=N)N)NC(=O)CNC(=O)[C@H](CC(C)C)NC(=O)[C@H](CCC(N)=O)NC(=O)[C@H](CCCCN)NC(=O)[C@]1(C)CCCC/C=C\\CCCC[C@](C)(N)C(=O)N[C@@H](CCCCN)C(=O)N[C@@H](CCCCN)C(=O)N[C@@H](C(C)C)C(=O)N1)C(C)C)C(=O)N[C@H](C(=O)N[C@H](C(=O)NCC(=O)NCC(=O)N[C@@H](CCCNC(=N)N)C(=O)N[C@@H](CCSC)C(=O)N[C@@H](CCCNC(=N)N)C(=O)N[C@@H](Cc1ccccc1)C(=O)O)C(C)C)[C@@H](C)O", "note": "(H-[X1]KKV[X1]KQLGRVLRHSRITVGGRMRF-OH; staple (Z) 1-5)", "values": [{"measurement": "hemolysis at 100 microg/ml", "setting": "[1]", "value": "< 5", "unit": "%"}, {"measurement": "Activity", "setting": "[2]", "value": "Active"}, {"measurement": "Activity", "setting": "[3]", "value": "Active"}, {"measurement": "fold change (FC)", "setting": "[4]", "value": 2}, {"measurement": "Activity", "setting": "[5]", "value": "inactive"}]}
